According to patent publication US6180622A, “Imidazo[5,1-b]thiazol-3-yl carbapenem antimicrobials” (priority 1996, dated 2001):
Converted amounts (≈) assume the structure as drawn.

Tests used:
C. freundii GN346 = experiment: Antimicrobial activity (minimum inhibitory concentration); assay type: cell-based; settings: Citrobacter freundii
Protocol: (§1) For representative compounds among the novel carbapenem derivatives of the present invention, the minimum inhibitory concentration (MIC, μg/ml) against various pathogenic bacteria was measured in accordance with a method described in CHEMOTHERAPY, Vol. 16, No. 1, 99 (1968).

E. cloacae G-0008 = experiment: as above; assay type: cell-based; settings: Enterobacter cloacae, G0008
Protocol: as §1

E. coli GN206 = experiment: as above; assay type: cell-based; settings: Escherichia coli
Protocol: as §1

E. coli NIHJ JC-2 = experiment: as above; assay type: cell-based; settings: Escherichia coli, NIHJJC2
Protocol: as §1

K. pneumoniae PCI602 = experiment: as above; assay type: cell-based; settings: Klebsiella pneumoniae
Protocol: as §1

M. morganii 1510 = experiment: as above; assay type: cell-based; settings: Morganella morganii
Protocol: as §1

P. vulgaris GN76 = experiment: as above; assay type: cell-based; settings: Proteus vulgaris; P. vulgaris GN76; read-out: MIC
Protocol: as §1

Ps. aeruginosa GN10362 = experiment: as above; assay type: cell-based; settings: Pseudomonas aeruginosa; Ps. aeruginosa GN10362; read-out: MIC
Protocol: as §1

S. aureus 209P JC-1 = experiment: as above; assay type: cell-based; settings: Staphylococcus aureus
Protocol: as §1

S. aureus M126 = experiment: as above; assay type: cell-based; settings: Staphylococcus aureus; S. aureus M126, highly meticillin-resistant strain
Protocol: as §1

S. marcescens No. 1 = experiment: as above; assay type: cell-based; settings: Serratia marcescens
Protocol: as §1

[1] = Stability against DHP-I (pig); assay type: in vitro ADME; settings: kidney dhp-i, 100 μg (potency)/ml, 37° C., pH 7.0, read-out: residue (%) of the carbapenem derivative
Protocol: (§2) The stability of representative compounds, among the novel carbapenem derivatives of the present invention, against kidney dehydropeptidase-I (DHP-I) of a pig and a mouse was measured, and the residue (%) of the carbapenem derivatives three hr after the initiation of the test is summarized in Table 6.
(§3) 1.5 g of a kidney acetone powder (manufactured by Sigma) Porcine Type II (Lot. 33H7225) was suspended in 100 ml of 50 mM Tris-HCl buffer (pH 7.0) containing 20% butanol, and the suspension was stirred at 5° C. for 48 hr. The suspension was then dialyzed against 50 mM Tris-HCl buffer (pH 7.0) (a cellulose tube 30/32 Viskase Sales Corp.) until the odor of butanol disappeared, thereby removing butanol. The dialyzate is centrifuged at 10000×g (KUBOTA 6800) for 20 min, and the supernatant was obtained as a partially purified DHP-I. This partially purified DHP-I was subdivided and stored at -80° C. The above procedure was repeated, except that 1.5 g of Mouse (Lot. 23F8105) was used. Thus, a partially purified DHP-I was prepared and stored.
(§4) For the carbapenem as the substrate agent, a solution (2000 μg (potency)/ml) was prepared using sterilized, purified water. For the sample solution, the carbapenem (2000 μg (potency)/ml) solution was added to the partially purified DHP-I of each animal to a final concentration of 100 μg (potency)/ml). For the blank, 50 mM Tris-HCl buffer (pH 7.0) was used instead of the partially purified DHP-I of each animal. The reaction was allowed to proceed at 37° C. for 3 hr, and a given amount of the reaction mixture was sampled. Methanol in the same amount as the sampled reaction mixture was added under ice cooling to terminate the reaction. The reaction mixture was filtered through a filter (Sanprep LCR 13-LH manufactured by MILLIPORE) and subjected to HPLC (column: CAPCELL PACK C18SG120, manufactured by Shiseido Co., Ltd.; detection: UV; mobile layer: acetonitrile/10 mM aqueous acetic acid solution) to determined the residue (%).
(§5) Residue (%)=(Sample Peak Area/Blank Peak Area)×100

[2] = Stability against DHP-I (mouse); assay type: in vitro ADME; settings: kidney dhp-i, 100 μg (potency)/ml, 37° C., pH 7.0, read-out: residue (%) of the carbapenem derivative
Protocol: as §2, §3, §4, §5

SMILES | MIC (C. freundii GN346) [µg/mL] | MIC (E. cloacae G-0008) [µg/mL] | MIC (E. coli GN206) [µg/mL] | MIC (E. coli NIHJ JC-2) [µg/mL] | MIC (K. pneumoniae PCI602) [µg/mL] | MIC (M. morganii 1510) [µg/mL] | MIC (P. vulgaris GN76) [µg/mL] | MIC (Ps. aeruginosa GN10362) [µg/mL] | MIC (S. aureus 209P JC-1) [µg/mL] | MIC (S. aureus M126) [µg/mL] | MIC (S. marcescens No. 1) [µg/mL] | remaining at 3 h [1] [%] | remaining at 3 h [2] [%]
C[C@@H](O)[C@H]1C(=O)N2C(C(=O)O)=C(S[C@@H]3CN[C@H](Cc4csc5cncn45)C3)[C@H](C)[C@H]12 [Ex. 20, (1R,5S,6S)-6-((1R)-1-Hydroxyethyl)-2-[(3S,5R)-5-(imidazo[5,1-b]thiazol-3-yl)methylpyrrolidin-3-yl]thio-1-methylcarbapen-2-em-3-carboxylic acid] |  |  |  |  |  |  |  |  |  |  |  | 100 | 97
C[C@@H](O)[C@H]1C(=O)N2C(C(=O)O)=C(S[C@@H]3CN[C@H](/C=C\c4csc5cncn45)C3)[C@H](C)[C@H]12 [Ex. 38, (1R,5S,6S)-6-((1R)-1-Hydroxyethyl)-2-[(3S,5S)-5-[2(Z)-(imidazo[5,1-b]thiazol-3-yl)ethenyl]pyrrolidin-3-yl]thio-1-methylcarbapen-2-em-3-carboxylic acid] | 0.2 (≈ 0.434 µM) | 0.1 (≈ 0.217 µM) | 0.1 (≈ 0.217 µM) | 0.1 (≈ 0.217 µM) | 0.2 (≈ 0.434 µM) | 0.78 (≈ 1.69 µM) | 1.56 (≈ 3.39 µM) | 6.25 (≈ 13.6 µM) | 0.1 (≈ 0.217 µM) | 25 (≈ 54.3 µM) | 0.2 (≈ 0.434 µM) |  | 
Cc1n2cc(C[C@@H]3C[C@H](SC4=C(C(=O)O)N5C(=O)[C@H]([C@@H](C)O)[C@H]5[C@H]4C)CN3)sc2c[n+]1CCC(N)=O [Ex. 67, (1R,5S,6S)-2-[(3S,5S)-5-(6-(2-Carbamoylethyl)-5-methylimidazo[5,1-b]thiazolium-2-yl)methylpyrrolidin-3-yl]thio-6-((1R)-1-hydroxyethyl)-1-methylcarbapen-2-em-3-carboxylic acid chloride] | 0.05 | 0.05 | 0.1 | 0.05 | 0.1 | 0.39 | 0.78 | 0.78 | < 0.025 | 12.5 | 0.39 |  | 
C[C@@H](O)[C@H]1C(=O)N2C(C(=O)O)=C(S[C@@H]3CN[C@H](C(=O)NCc4n5ccsc5c[n+]4C)C3)[C@H](C)[C@H]12 [Ex. 2, (1R,5S,6S)-6-((1R)-1-Hydroxyethyl)-1-methyl-2-[(3S,5S)-5-[(6-methylimidazo[5,1-b]thiazolium-5-yl)methylaminocarbonyl]pyrrolidin-3-yl]thiocarbapen-2-em-3-carboxylic acid chloride] | 0.2 | 0.1 | 0.05 | 0.1 | 0.1 | 0.39 | 1.56 | 12.5 | < 0.025 | 6.25 | 0.2 |  | 
C[C@@H](O)[C@H]1C(=O)N2C(C(=O)O)=C(S[C@@H]3CN[C@H](C(O)c4csc5cncn45)C3)[C@H](C)[C@H]12 (single isomer, unassigned) [Ex. 6] | 0.1 (≈ 0.215 µM) | 0.1 (≈ 0.215 µM) | 0.1 (≈ 0.215 µM) | 0.05 (≈ 0.108 µM) | 0.1 (≈ 0.215 µM) | 0.39 (≈ 0.839 µM) | 0.78 (≈ 1.68 µM) | 1.56 (≈ 3.36 µM) | < 0.025 | 6.25 (≈ 13.5 µM) | 0.2 (≈ 0.431 µM) |  | 
C[C@@H](O)[C@H]1C(=O)N2C(C(=O)O)=C(S[C@@H]3CN[C@H](c4csc5c[n+](C)cn45)C3)[C@H](C)[C@H]12 [Ex. 50, (1R,5S,6S)-6-((1R)-1-Hydroxyethyl)-1-methyl-2-[(3S,5S)-5-[(6-methylimidazo[5,1-b]thiazolium)-3-yl]pyrrolidin-3-yl]thiocarbapen-2-em-3-carboxylic acid chloride] | 0.1 | 0.05 | 0.05 | 0.05 | 0.1 | 0.39 | 0.78 | 0.78 | 0.05 | 12.5 | 0.1 |  | 
C[C@@H](O)[C@H]1C(=O)N2C(C(=O)O)=C(S[C@@H]3CN[C@H](C(O)c4cn5c[n+](C)cc5s4)C3)[C@H](C)[C@H]12 (single isomer, unassigned) [Ex. 18] | 0.2 | 0.05 | 0.05 | 0.05 | 0.1 | 0.2 | 0.39 | 3.13 | < 0.025 | 12.5 | 0.1 |  | 
C[C@@H](O)[C@H]1C(=O)N2C(C(=O)O)=C(S[C@@H]3CN[C@H](/C=C\c4csc5c[n+](CC(N)=O)cn45)C3)[C@H](C)[C@H]12 [Ex. 54] | 0.05 | < 0.025 | 0.05 | < 0.025 | 0.05 | 0.2 | 0.39 | 1.56 | < 0.025 | 3.13 | 0.1 |  | 
C[C@@H](O)[C@H]1C(=O)N2C(C(=O)O)=C(S[C@@H]3CN[C@H](/C=C\c4csc5c[n+](C)cn45)C3)[C@H](C)[C@H]12 [Ex. 39, (1R,5S,6S)-6-((1R)-1-Hydroxyethyl)-1-methyl-2-[(3S,5S)-5-[2(Z)-(6-methylimidazo[5,1-b]thiazolium-3-yl)ethenyl]pyrrolidin-3-yl]thiocarbapen-2-em-3-carboxylic acid chloride] | 0.1 | 0.05 | < 0.025 | < 0.025 | 0.05 | 0.2 | 0.39 | 6.25 | < 0.025 | 6.25 | 0.05 |  | 

Further lines, results first:

MIC (C. freundii GN346) [µg/mL] | MIC (E. cloacae G-0008) [µg/mL] | MIC (E. coli GN206) [µg/mL] | MIC (E. coli NIHJ JC-2) [µg/mL] | MIC (K. pneumoniae PCI602) [µg/mL] | MIC (M. morganii 1510) [µg/mL] | MIC (P. vulgaris GN76) [µg/mL] | MIC (Ps. aeruginosa GN10362) [µg/mL] | MIC (S. aureus 209P JC-1) [µg/mL] | MIC (S. aureus M126) [µg/mL] | MIC (S. marcescens No. 1) [µg/mL] | remaining at 3 h [1] [%] | remaining at 3 h [2] [%] | SMILES
0.05 | 0.05 | 0.05 | 0.05 | 0.05 | 0.2 | 0.39 | 0.78 | < 0.025 | 3.13 | 0.1 |  |  | C[C@@H](O)[C@H]1C(=O)N2C(C(=O)O)=C(S[C@@H]3CN[C@H](/C=C\c4cn5c[n+](CC(N)=O)cc5s4)C3)[C@H](C)[C@H]12 [Ex. 53B, (1R,5S,6S)-2-[(3S,5S)-5-[2(Z)-(6-(carbamoylmethyl)imidazo[5,1-b]thiazolium-2-yl)ethenyl]pyrrolidin-3-yl]thio-6-((1R)-1-hydroxyethyl)-1-methylcarbapen-2-em-3-carboxylic acid iodide]
0.1 (≈ 0.188 µM) | 0.05 (≈ 0.094 µM) | 0.1 (≈ 0.188 µM) | 0.05 (≈ 0.094 µM) | 0.1 (≈ 0.188 µM) | 0.39 (≈ 0.734 µM) | 0.78 (≈ 1.47 µM) | 1.56 (≈ 2.93 µM) | < 0.025 | 6.25 (≈ 11.8 µM) | 0.1 (≈ 0.188 µM) |  |  | C[C@@H](O)[C@H]1C(=O)N2C(C(=O)[O-])=C(S[C@@H]3CN[C@H](/C=C\c4csc5c[n+](CCC(N)=O)cn45)C3)[C@H](C)[C@H]12 [Ex. 72, (1R,5S,6S)-2-[(3S,5S)-5-[2(Z)-(6-(2-Carbamoylethyl)imidazo[5,1-b]thiazolium-3-yl)ethenyl]pyrrolidin-3-yl]thio-6-((1R)-1-hydroxyethyl)-1-methylcarbapen-2-em-3-carboxylate]
0.1 | 0.1 | 0.1 | 0.05 | 0.1 | 0.39 | 0.78 | 0.78 | 0.05 | 12.5 | 0.1 |  |  | C[C@@H](O)[C@H]1C(=O)N2C(C(=O)O)=C(S[C@@H]3CN[C@H](/C=C/c4cn5c[n+](CC(N)=O)cc5s4)C3)[C@H](C)[C@H]12 [Ex. 53A]
0.1 | 0.05 | 0.1 | 0.05 | 0.1 | 0.2 | 0.39 | 0.78 | < 0.025 | 6.25 | 0.2 |  |  | C[C@@H](O)[C@H]1C(=O)N2C(C(=O)O)=C(S[C@@H]3CN[C@H](/C=C\c4cn5c[n+](CCC(N)=O)cc5s4)C3)[C@H](C)[C@H]12 [Ex. 76, (1R,5S,6S)-2-[(3S,5S)-5-[2(Z)-(6-(2-Carbamoylethyl)imidazo[5,1-b]thiazolium-2-yl)ethenyl]pyrrolidin-3-yl]thio-6-((1R)-1-hydroxyethyl)-1-methylcarbapen-2-em-3-carboxylic acid chloride]
